Experimental data taken from PubChem BioAssay (NCI).
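GI50 is the concentration that inhibits growth by half. TGI is the concentration that stops growth completely.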

Experiments:
Assay in all cases: NCI anticancer screen, dose series, 384-well format
CAKI-1 renal = test system: CAKI-1 renal
SF-295 CNS = test system: SF-295 CNS
PC-3 prostate = test system: PC-3 prostate
SK-MEL-28 melanoma = test system: SK-MEL-28 melanoma
DU-145 prostate = test system: DU-145 prostate
NCI-H226 lung = test system: NCI-H226 lung
K-562 leukemia = test system: K-562 leukemia
SNB-75 CNS = test system: SNB-75 CNS
HT29 colon = test system: HT29 colon
RXF 393 renal = test system: RXF 393 renal
U251 glioblastoma = test system: U251 glioblastoma
SK-OV-3 ovarian = test system: SK-OV-3 ovarian
CCRF-CEM leukemia = test system: CCRF-CEM leukemia

With `C[C@H](N)C(=O)N1C[C@H](CCCB(O)O)[C@](N)(C(=O)O)C1` the GI50 (CAKI-1 renal) was > 100 µM, the TGI (CAKI-1 renal) was > 100 µM and the GI50 (SF-295 CNS) was > 100 µM. The TGI (SF-295 CNS) was > 100 µM, the GI50 (PC-3 prostate) was > 100 µM and the TGI (PC-3 prostate) was > 100 µM. For the same compound, the GI50 (SK-MEL-28 melanoma) was > 100 µM, the TGI (SK-MEL-28 melanoma) was > 100 µM and the GI50 (DU-145 prostate) was > 100 µM. The TGI (DU-145 prostate) was > 100 µM, the GI50 (NCI-H226 lung) was > 100 µM and the TGI (NCI-H226 lung) was > 100 µM. The GI50 (K-562 leukemia) was > 100 µM, the TGI (K-562 leukemia) was > 100 µM and the GI50 (SNB-75 CNS) was > 100 µM. The TGI (SNB-75 CNS) was > 100 µM, the GI50 (HT29 colon) was > 100 µM and the TGI (HT29 colon) was > 100 µM. For the same compound, the GI50 (RXF 393 renal) was > 100 µM, the TGI (RXF 393 renal) was > 100 µM and the GI50 (U251 glioblastoma) was > 100 µM. For the same compound, the TGI (U251 glioblastoma) was > 100 µM, the GI50 (SK-OV-3 ovarian) was > 100 µM and the TGI (SK-OV-3 ovarian) was > 100 µM. For the same compound, the GI50 (CCRF-CEM leukemia) was > 100 µM and the TGI (CCRF-CEM leukemia) was > 100 µM.
